# Results published in patent publication US9605026B2, “Hydrogen-bond surrogate peptides and peptidomimetics for p53 reactivation” (New York University, priority 2013, dated 2017).
# Assays:
# UMSCC47 cells = test: Cell proliferation (MTT) in UMSCC47 cells; format: cell-based, human; conditions: for cell proliferation, single-agent: UMSCC47, 10 μM, 24-72 hours
# Description: (§1) FIG. 5A is an schematic illustration showing that CH1 has two distinct target sites. HIF1-α/p300 structures were used as guides to design helix mimetics that target site A and site B on the CH1 domain of p300. […] CH1iA (SEQ ID NO: 7) and CH1iB (SEQ ID NO: 8) were designed to mimic two helices from the C-terminal domain of HIF-1α. The peptides were locked into the helical conformation by the hydrogen bond surrogate method. FIG. 5C is a graph of p53 activity. UMSCC47 (left) and UMSCC74A (right) cells were co-transfected with a p53 Firefly luciferase reporter plasmid and a control Renilla luciferase plasmid. After 24 hours, cells were treated with control (vehicle), CH1iA (10 μM), or CH1iB (10 μM) for 24 hours. Firefly luciferase activity was normalized to Renilla luciferase activity to control for transfection efficiency. Data is normalized to control and presented as mean±SEM. *P<0.05, n=3. FIG. 5D is a western blot showing total and acetylated p53 levels. UMSCC47 (left) and UMSCC74A (right) cells were treated with control (vehicle), CH1iA (10 μM), or CH1iB (10 μM) for 24 hours. Cell lysates were immunoblotted with anti-p53 or anti-acetylated[K382]-p53 antibody. FIG. 5E is a pair of graphs of p300, p53, p21, miR-34a, and miR-200c expression. UMSCC47 (top panel) and UMSCC74A (bottom panel) cells were treated with control (vehicle), CH1iA (10 μM), or CH1iB (10 μM) for 24 hours. mRNA expression was determined using qPCR with validated TaqMan assays. Data is normalized to control cells and presented as mean±SEM. *P<0.01, control vs. CH1iB, n=3. FIG. 5F is a western blot showing HPV16 E6-p300 association. UMSCC47 cells were treated with control (vehicle), CH1iA (10 μM), or CH1iB (10 μM) for 24 hours. Cell lysates were extracted, immunoprecipitated with anti-p300 antibody, and immunoblotted with anti-E6 antibody. Cell lysates were immunoblotted with anti-E6 or anti-p300 antibody for input control. FIG. 5G is a set of graphs of cell proliferation. UMSCC47 (top left panel), UMSCC74A (top right panel), and IMR90 (human normal fibroblasts) (bottom panel) cells were treated with control (vehicle), CH1iA (10 μM), CH1iB (10 μM), cis-platinum (10 μM), CH1iA (10 μM) and cis-platinum (10 μM), or CH1iB (10 μM) and cis-platinum (10 μM) for 24, 48, or 72 hours. Data is normalized to Day 0 and presented as mean±SEM. *P<0.01, control vs. CH1iB or cis-platinum, **P<0.01 CH1iB or cis-platinum vs. CH1iB and cis-platinum, n=6.
# FIG. 7A is a graph of p53 transcriptional activity. UMSCC47 cells were co-transfected with a p53 Firefly luciferase reporter plasmid and a control Renilla luciferase plasmid. After 24 hours, cells were treated with control (vehicle) or CH1iB-mut (10 μM) for 24 hours. Firefly luciferase activity was normalized to Renilla luciferase activity to control for transfection efficiency. Data is presented as mean±SEM. *P<0.05, n=5. FIG. 7B is a graph of cell proliferation. UMSCC47 cells were treated with control (vehicle), CH1iB-mut (10 μM), cis-platinum (10 μM), or CH1iB-mut (10 μM) and cis-platinum (10 μM) for 24 or 48 hours. Data is normalized to Day 0 and presented as mean±SEM. *P<0.01, control or CH1iB-mut vs. cis-platinum or cis-platinum+CH1iB-mut, n=6.
# Cell proliferation was assessed using the MTT reagent (Roche Molecular Biochemicals, Nutley, N.J.) to detect metabolic active cells. Absorbance was measured at 570 nm in the Spectra Max 190 ELISA reader (Molecular Devices, Sunnyvale, Calif.) after overnight incubation. […]
# [1] = test system: human normal IMR90 fibroblasts; test: Cell proliferation (MTT) in IMR90 fibroblasts; format: cell-based; conditions: for effect on efficacy of cis-platinum on proliferation: IMR90, 10 μM with cis-platinum 10 μM; for cell proliferation, single-agent: IMR90 human normal fibroblasts, 10 μM
# Description: as §1, with “Data is normalized to Day 0 and presented as mean±SEM. *P<0.01, control vs. CH1iB or cis-platinum, **P<0.01 CH1iB or cis-platinum vs. CH1iB and cis-platinum, n=6.” left out
# Cell proliferation was assessed using the MTT reagent (Roche Molecular Biochemicals, Nutley, N.J.) to detect metabolic active cells. Absorbance was measured at 570 nm in the Spectra Max 190 ELISA reader (Molecular Devices, Sunnyvale, Calif.) after overnight incubation. […] Apoptotic cells were analyzed using BD FACS Calibur (BD Biosciences Corporation, Franklin Lakes, N.J.) at The Ohio State University Comprehensive Cancer Center Analytical Cytometry Core.
Substance,"effect on anti-proliferative efficacy of cis-platinum (combination) (UMSCC47 cells; UMSCC47, 10 μM with cis-platinum 10 μM)","cell proliferation, single-agent (UMSCC47 cells)",effect on efficacy of cis-platinum on proliferation [1],"cell proliferation, single-agent [1]"
"XELA*RALDQ-NH2 (ELXRALDQ; HBS: 4-pentenoic acid, N-allylalanine; C-terminal amide; CH1iB) [X 4-pentenoic acid, A* N-allylalanine]",potentiated,inhibited,did not augment,no effect
"XTAA*DCEYNAR (TAXDCEYNAR; HBS: 4-pentenoic acid, N-allylalanine; CH1iA) [X 4-pentenoic acid, A* N-allylalanine, reference compound]",,inactive,did not augment,no effect
